According to PMC6222425, “Novel 5′-Norcarbocyclic Derivatives of Bicyclic Pyrrolo- and Furano[2,3-d]Pyrimidine Nucleosides” (Molecules : A Journal of Synthetic Chemistry and Natural …, 2018):
Where two headings read alike, the source gives them in different places.

Legend:
Type in all cases: cell-based
[1] = test system: HeLa (human cervical epithelioid carcinoma) cells; assay: Cell viability analysis by MTT assay, HeLa; conditions: for IC50: Homo sapiens, HeLa, MTT, 48 h incubation, read-out: Antiproliferative activity, IC50, HeLa; for Selectivity index, HeLa: ratio of IC50 on normal hFF3 cells to IC50 of HeLa
Experimental: (§1) The target compounds were tested on different lines of tumor cells, HuTu-80 (human duodenal cancer), B16 (mouse melanoma), A549 (human lung adenocarcinoma), KB-3-1 (human squamous cell carcinoma), HeLa (human squamous cell carcinoma of the cervix), as well as on human noncancer cells hFF3.
(§2) Human KB-3-1 epidermoid carcinoma cell line, human HeLa cervical epithelioid carcinoma cell line, human HuTu-80 duodenal cancer cells, human A549 lung carcinoma epithelial cells, mouse B16 melanoma cell line and human hFF3 fibroblast cells were obtained from the Russian Cell Culture Collection (St. Petersburg, Russia) and were cultured in DMEM (hFF3 cells in IMDM) supplemented with 10% (v/v) heat-inactivated fetal bovine serum, penicillin (100 U mL^−1), streptomycin (100 µg mL^−1) and amphotericin ([…]). Cells were maintained in a humidified atmosphere of 5% CO2 at 37 °C.
(§3) All compounds were dissolved in dimethylsulfoxide (DMSO) and stock solutions (10 mmol L^−1) were stored at −20 °C.
(§4) Cells growing in the logarithmic phase were seeded in triplicate in 96-well plates at a density of 5 × 10^3 cells per well for HeLa and HuTu-80 cells, 7 × 10^3 cells per well for KB-3-1 and hFF3, 10 × 10^3 for A549 and 20 × 10^3 for B16. The plates were incubated at 37 °C in a humidified 5% CO2 atmosphere. Cells were allowed to adhere to the surface for 24 h and then tested compounds were added at different concentrations and incubation was continued for 48 h. Then [3-(4,5-dimethylthiazol-2-yl)-2,5-diphenyltetrazolium bromide] (MTT) solution (10 µL, 5 mg mL^−1) was added to each well and the incubation was continued for an additional 3 h. The dark blue formazan crystals formed within the healthy cells were solubilized with DMSO and the absorbance was measured using a Multiscan RC plate reader at 570 nm. The IC50 was determined as the compound concentration required to decrease the A570 to 50% compared to the control (no tested compounds, DMSO) and was determined by interpolation from dose-response curves.

[2] = test system: human noncancer cells hFF3 (fibroblasts); assay: Cell viability analysis by MTT assay, normal hFF3 cells; conditions: for IC50: normal cells, MTT, 48 h incubation, read-out: Antiproliferative activity, IC50, hHFF3; for Toxic effect on normal hFF3 cells: concentrations up to 100 μM
Experimental: as §1, §2, §3, §4

[3] = test system: B16 (mouse melanoma) cells; assay: Cell viability analysis by MTT assay, B16; conditions: for IC50: MTT, 48 h incubation, read-out: Antiproliferative activity, IC50, B16; for Selectivity index, B16: ratio of IC50 on normal hFF3 cells to IC50 of B16
Experimental: as §1, §2, §3, §4

[4] = test system: KB-3-1 (human epidermoid carcinoma) cells; assay: Cell viability analysis by MTT assay, KB-3-1; conditions: for IC50: Homo sapiens, KB 3-1, 48 h, MTT, 48 h incubation, read-out: Antiproliferative activity, IC50, KB-3-1; for Selectivity index, KB-3-1: ratio of IC50 on normal hFF3 cells to IC50 of KB-3-1
Experimental: as §1, §2, §3, §4

[5] = test system: HuTu-80 (human duodenal cancer) cells; assay: Cell viability analysis by MTT assay, HuTu-80; conditions: for IC50: Homo sapiens, HuTu80, MTT, 48 h incubation, read-out: Antiproliferative activity, IC50, HuTu80; for Selectivity index, HuTu80: ratio of IC50 on normal hFF3 cells to IC50 of HuTu80
Experimental: as §1, §2, §3, §4

[6] = test system: A549 (human lung adenocarcinoma) cells; assay: Cell viability analysis by MTT assay, A549; conditions: for IC50: Homo sapiens, A549, MTT, 48 h incubation, read-out: Antiproliferative activity, IC50, A549; for Selectivity index, A549: ratio of IC50 on normal hFF3 cells to IC50 of A549
Experimental: as §1, §2, §3, §4

| SMILES | IC50 [1] | Selectivity index, HeLa [1] | IC50 ([2]; Homo sapiens, HFF-3, 48 h) | Toxic effect on normal hFF3 cells [2] | IC50 ([3]; Mus musculus, 48 h) | IC50 [4] | Selectivity index, KB-3-1 [4] | IC50 [5] | IC50 [6] | Selectivity index, A549 [6] | Selectivity index, B16 [3] | Selectivity index, HuTu80 [5] | IC50 [2] | IC50 [3] |
| --- | --- | --- | --- | --- | --- | --- | --- | --- | --- | --- | --- | --- | --- | --- |
| CCCc1cc2cn(C3C=CC(O)C3)c(=O)nc2o1 (stereo not shown) [Compound 3a, 1-(4′-Hydroxy-2′-cyclopenten-1′-yl)-6-propyl-3H-furano[2,3-d]-pyrimidine-2-one] | 63.4 ± 6.8 µM | >1.6 | > 100 µM | not toxic | > 100 µM | 40.1 ± 5.2 µM | >2.5 | > 100 µM | > 100 µM | – | – | – | – | – |
| CCCCCCc1cc2cn(C3C=CC(O)C3)c(=O)nc2o1 (stereo not shown) [Compound 3c, 1-(4′-Hydroxy-2′-cyclopenten-1′-yl)-6-hexyl-3H-furano[2,3-d]-pyrimidine-2-one] | > 100 µM | – | > 100 µM | not toxic | > 100 µM | 45.3 ± 5.1 µM | >2.2 | 100 µM | 50.3 ± 6.1 µM | >1.9 | – | – | – | – |
| CCCCCCCCc1cc2cn(C3C=CC(O)C3)c(=O)nc2o1 (stereo not shown) [Compound 3d, 1-(4′-hydroxy-2′-cyclopenten-1′-yl)-6-octyl-3Hfurano[2,3-d]-pyrimidine-2-one] | 40.6 ± 3.9 µM | 1.2 | 48.2 ± 5.1 µM | – | 46.2 ± 3.4 µM | 47.3 ± 4.2 µM | 1 | 46.3 ± 5.7 µM | 54.1 ± 6.1 µM | 0.9 | 1 | 1 | – | – |
| CCCCCCCCCCc1cc2cn(C3C=CC(O)C3)c(=O)nc2o1 (stereo not shown) [Compound 3e, 1-(4′-hydroxy-2′-cyclopenten-1′-yl)-6-decyl-3Hfurano[2,3-d]-pyrimidine-2-one] | 4.5 ± 0.9 µM | 2.6 | 11.6 ± 2.1 µM | – | 21.3 ± 3.1 µM | 11.2 ± 5.3 µM | 1 | 7.3 ± 2.4 µM | 36.2 ± 11.3 µM | 0.3 | 0.5 | 1.6 | – | – |
| CCCCCCCCCCCCc1cc2cn(C3C=CC(O)C3)c(=O)nc2o1 (stereo not shown) [Compound 3f, 1-(4′-hydroxy-2′-cyclopenten-1′-yl)-6-dodecyl-3Hfurano[2,3-d]-pyrimidine-2-one] | 2.5 ± 0.3 µM | 4.1 | 10.2 ± 1.8 µM | – | 4.5 ± 0.3 µM | 10.2 ± 4.1 µM | 1 | 7.1 ± 0.8 µM | 10.5 ± 1.9 µM | 1 | 2.3 | 1.4 | – | – |
| O=c1nc2oc(-c3ccccc3)cc2cn1C1C=CC(O)C1 (stereo not shown) [Compound 3g, 1-(4′-Hydroxy-2′-cyclopenten-1′-yl)-6-phenyl-3H-furano[2,3-d]-pyrimidine-2-one] | 45.3 ± 5.1 µM | >2.2 | > 100 µM | not toxic | > 100 µM | 30.1 ± 4.1 µM | >3.3 | > 100 µM | > 100 µM | – | – | – | – | – |
| CC(C)(C)c1ccc(-c2cc3cn(C4C=CC(O)C4)c(=O)nc3o2)cc1 (stereo not shown) [Compound 3h, 1-(4′-Hydroxy-2′-cyclopenten-1′-yl)-6-tertbutylphenyl-3H-furano[2,3-d]-pyrimidine-2-one] | 2.3 ± 0.3 µM | 2.2 | 5.1 ± 0.7 µM | – | 10.1 ± 2.3 µM | 1.7 ± 0.2 µM | 3 | 9.9 ± 1.7 µM | 7.2 ± 0.8 µM | 0.7 | 0.5 | 0.5 | – | – |
| CCCCCc1cc2cn(C3C=CC(O)C3)c(=O)nc2[nH]1 (stereo not shown) [Compound 4b, 1-(4′-Hydroxy-2′-cyclopenten-1′-yl)-6-pentyl-3H-pyrrolo[2,3-d]-pyrimidine-2-one] | 50.1 ± 4.7 µM | >1.9 | > 100 µM | – | > 100 µM | 25.2 ± 3.4 µM | >3.9 | 80.4 ± 0.9 µM | 45.3 ± 3.9 µM | >2.2 | – | >1.2 | – | – |
| CCCCCCc1cc2cn(C3C=CC(O)C3)c(=O)nc2[nH]1 (stereo not shown) [Compound 4c, 1-(4′-Hydroxy-2′-cyclopenten-1′-yl)-6-hexyl-3H-pyrrolo[2,3-d]-pyrimidine-2-one] | 50.7 ± 6.2 µM | >1.9 | > 100 µM | – | > 100 µM | 25.6 ± 2.9 µM | >3.9 | 20.4 ± 3.9 µM | 35.2 ± 4.1 µM | >2.8 | – | >4.9 | – | – |
| CCCCCCCCc1cc2cn(C3C=CC(O)C3)c(=O)nc2[nH]1 (stereo not shown) [Compound 4d, 1-(4′-Hydroxy-2′-cyclopenten-1′-yl)-6-octyl-3H-pyrrolo[2,3-d]-pyrimidine-2-one] | 20.1 ± 1.9 µM | >4.9 | > 100 µM | – | > 100 µM | 25.4 ± 3.1 µM | >3.9 | 30.2 ± 2.9 µM | 100 µM | – | – | >3.3 | – | – |
| CCCCCCCCCCc1cc2cn(C3C=CC(O)C3)c(=O)nc2[nH]1 (stereo not shown) [Compound 4e, 1-(4′-Hydroxy-2′-cyclopenten-1′-yl)-6-decyl-3H-pyrrolo[2,3-d]-pyrimidine-2-one] | 11 ± 2.1 µM | 5.7 | 63 µM | – | 25 µM | 18.4 ± 7.1 µM | 3.4 | 23.4 ± 7.8 µM | 36.2 ± 6.2 µM | 1.7 | 2.5 | 2.6 | 62.5 ± 8.3 µM | 25.1 ± 2.4 µM |
| CCCCCCCCCCCCc1cc2cn(C3C=CC(O)C3)c(=O)nc2[nH]1 (stereo not shown) [Compound 4f, 1-(4′-Hydroxy-2′-cyclopenten-1′-yl)-6-dodecyl-3H-pyrrolo[2,3-d]-pyrimidine-2-one] | 3.2 ± 0.4 µM | 1 | 3.4 ± 0.7 µM | – | 3.1 ± 0.3 µM | 4.5 ± 0.9 µM | 0.8 | 3.1 ± 0.4 µM | 4.5 ± 0.2 µM | 0.8 | 1.1 | 1.1 | – | – |
